Measurements as given in patent publication US9539315B2, “Methods, agents and peptides for inhibiting matrix metalloproteinase-2 signaling” (New York University, priority 2011, dated 2017).
“Also recorded” adds a separate entry of the source.

B1: PEX: last third of MMP-2, amino acids 445-635 of SEQ ID NO: 1; recombinant (protein, listed as Homo sapiens)
chain: YGASPDIDLGTGPTPTLGPVTPEICKQDIVFDGIAQIRGEIFFFKDRFIWRTVTPRDKPMGPLLVATFWPELPEKIDAVYEAPQEEKAVFFAGNEYWIYSASTLERGYPKPLTSLGLPPDVQRVDAAFNWSKNKKTYIFAGDKFWRYNEVKKKMDPGFPKLIADAWNAIPDNLDAVVDLQGGGHSYFFKGA

Key:
NF-κB pathway = assay: p50 nuclear translocation / NF-κB activation in DCs (ELISA of cytosolic and nuclear fractions); assay type: cell-based, human; settings: DCs exposed to MMP-2 (5 μm/ml) or zymosan (10 μm/ml); p50 by ELISA
Description: (§1) A) DCs were exposed to MMP-2 […] or zymosan […], a known activator of NF-κB that acts via TLR2, for the indicated time. Cytosolic and nuclear fractions were isolated and p50 contents were measured by ELISA. […] C) OX40L over-expression on DCs induced by MMP-2 is inhibited by an inhibitor of NEMO, the NEMO binding domain (NBD) peptide, but not by the corresponding negative control, a NBD mutant.
(§2) PBMCs were purified from healthy-(HD) or cord blood- (CB) donors and plated at 40×10^6 cells/10 mL/dish in complete IMDM with 5% PHS. Cells were allowed to adhere for 2 h at 37° C. Non-adherent cells were removed. The monocyte-enriched fraction was supplemented with 100 UI/mL rhGMCSF and 300 UI/mL rhIL-4 (R&D Systems) on days 0, 2 and 4. Immature DCs were harvested on day 5 and matured using poly(I:C) at 5 μg/mL/10^6 DCs (Amersham). Secretion of IL-12p70, TNFα, IL-1β, IL-6, IL-8 and IL-10 was assessed on both immature and mature DCs using the Human Inflammatory Cytokine Cytometric Bead Array (BD Pharmingen).
Activation of T cell clones (10,000 cells/100 μL/well), polyclonal T cell populations (100,000 cells/100 μL/well), and DCs (50,000 cells/100 μL/well) can be determined by ELISA. IFNγ (BioSource), TNFα (BioSource), IL-4 (BioSource), IFNβ (VeriKine; PBL interferon source) and MCP-3 (DuoSet; R&D Systems) contents in supernatants were measured according to the manufacturer's instructions. p50 was measured in cytosolic and nuclear fractions (fractions separated using the nuclear separation kit from Active motif) by ELISA (Active motif).

OX40L = OX40L expression on DCs (staining); assay type: cell-based, human; settings: DCs exposed for 2 days, stained for OX40L
Description: as §1
(§3) A) DCs were exposed to various TLR agonists for 2 days before cells were stained for OX40L. […] B) TLR2-transfected and engineered HEK cells were incubated with MMP-2 (5 mg/ml) or various controls. All conditions were also tested in the presence of a blocking antibody for TLR2. TNFα was used to activate NF-κB in a TLR-independent manner. Twenty hours later, NF-κB activation was measured.
Antibody to OX40L (11C3.1) was from Biolegend. Blocking antibodies to TLR-2 and TLR-6 were from Invivogen. Antibodies to GATA-3, IL-4 (8D4-8), IL-5 (JES1-39D10), IL-13 (JES10-5A2), TNFα (MAb11), IFNγ (25723.11), perforin (δG9), GranzymeB (GB11), CD40 (5C3), CD80 (L307.4), CD83 (HB15e), CD86 (IT2.2), HLA-DR (TU36), fluorescein isothiocyanate-conjugated antibodies to CD45RA (HI100) and CD45RO (UCHL1), and antibody to CD4 (RPA-T4) were purchased from BD Biosciences Pharmingen. Alexa fluor 488-conjugated antibody to IL-17 (eBio64DEC17), phycoerythrine-conjugated antibody to T-bet (4B10).
as §2

human TLR-2 = biological target: T1, human TLR-2 (Homo sapiens, UniProt O60603); assay: HEK-Blue-hTLR2 NF-κB SEAP reporter assay; assay type: cell-based; settings: MMP-2 5 mg/ml; twenty hours; with/without TLR2 blocking antibody
T1 construct: host or cells: HEK293 (HEK-Blue-hTLR2 cells)
Description: as §3
TLR2-transfected and engineered HEK cells were incubated with MMP-2 (5 mg/ml), TLR2 agonists, recombinant PEX and 3 pools of overlapping 20-mers covering MMP-2. OLP1: mix of 22 overlapping peptides covering MMP-2 from amino-acid 1 to 220; OLP2: mix of 22 overlapping peptides covering MMP-2 from amino-acid 210 to 440; OLP3: mix of 22 overlapping peptides covering MMP-2 from amino-acid 450 to 660. Twenty hours later, NF-κB activation was measured. Neither PEX nor the peptides triggered NF-κB signaling.
TLR-2-transfected (stably) HEK-Blue™ Cells represent a very efficient high throughput reagent for screening due to an easy read-out. […] Levels of SEAP can be readily determined with QUANTI-Blue™, a detection medium that turns purple/blue in the presence of alkaline phosphatase. […] Inhibition of NF-κB activation by any agents/molecules can be assessed and confirmed in DCs (which endogenously express TLR2 or are engineered to express exogenous TLR2) in order to corroborate the initial screening results in a native or more natural context. […] TLR-2-expressing cells, such as those described herein, can be incubated with agents/molecules and molecular interactions assessed using methods, such as, e.g., co-immunoprecipitation of MMP-2 and TLR-2 from the cell lysates. […] Additional methods can be used to evaluate if MMP-2 and TLR-2 interact directly, including other affinity-based methods (e.g., affinity chromatography or panning), competitive inhibition assays, and various visualization techniques, such as fluorescence resonance energy transfer (FRET) and others which are known in the art. […]

bone-marrow-derived DCs = assay: Activation of bone-marrow-derived DCs from wild-type and TLR-deficient mice; assay type: cell-based, C57/BL6 mice
Description: Bone-marrow-derived DCs from wild-type, TLR2^−/−, TLR6^−/− or MyD88^−/− C57/BL6 mice (3 mice pooled/condition) were incubated overnight with 5 μg/ml mMMP-2 or mMMP-9 as well as TLR agonists for controls. TNFα (A) and IL-6 (B) were measured by cytometric bead array analysis. Results are represented as a mean of triplicates±s.d. Two-tailed Student's t-tests were used for specific pairwise comparisons between conditions. p values≦0.05 (*) were considered statistically significant. C) Murine OX40L expression was assessed 2 days later by immunostaining.
Bone-marrow-derived DCs (BM-DCs) were generated and cultured with murine MMP-2 or various controls. […] On the other hand, TLR2^−/− and MyD88^−/− BM-DCs were not activated by MMP-2 (n=3; p<0.02 compared to wild-type mice) (FIG. 9A-C). […] Therefore, MMP-2 induces DCs to produce inflammatory cytokines and to up-regulate OX40L in a TLR2/MyD88-dependent manner.

T1 sequence (O60603 21-784): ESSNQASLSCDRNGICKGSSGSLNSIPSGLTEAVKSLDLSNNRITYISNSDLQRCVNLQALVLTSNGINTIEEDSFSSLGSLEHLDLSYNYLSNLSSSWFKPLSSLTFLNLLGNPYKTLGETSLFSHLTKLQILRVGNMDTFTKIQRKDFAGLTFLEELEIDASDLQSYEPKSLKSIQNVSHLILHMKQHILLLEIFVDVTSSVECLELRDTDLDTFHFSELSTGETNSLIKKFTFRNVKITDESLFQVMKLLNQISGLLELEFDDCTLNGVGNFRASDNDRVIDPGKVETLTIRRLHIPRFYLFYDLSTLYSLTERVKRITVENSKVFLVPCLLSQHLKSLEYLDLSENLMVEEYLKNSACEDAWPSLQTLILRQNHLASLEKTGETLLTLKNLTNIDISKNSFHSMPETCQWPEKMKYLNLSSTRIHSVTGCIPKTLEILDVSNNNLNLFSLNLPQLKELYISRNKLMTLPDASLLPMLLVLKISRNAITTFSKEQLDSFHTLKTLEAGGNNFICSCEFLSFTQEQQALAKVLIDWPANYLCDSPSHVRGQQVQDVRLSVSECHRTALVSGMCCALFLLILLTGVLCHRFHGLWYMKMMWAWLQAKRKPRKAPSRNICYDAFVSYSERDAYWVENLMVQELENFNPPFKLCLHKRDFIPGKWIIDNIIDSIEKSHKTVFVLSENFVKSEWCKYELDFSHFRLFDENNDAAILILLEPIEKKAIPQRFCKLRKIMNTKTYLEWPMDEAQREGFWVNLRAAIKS

| Molecule | p50 translocation in the nucleus (NF-κB pathway) | OX40L expression on DCs (OX40L) | NF-κB activation in TLR2-transfected HEK cells (human TLR-2) | activation of bone-marrow-derived DCs (bone-marrow-derived DCs; FIG. 9 summary) | activation of TLR2−/− and MyD88−/− BM-DCs (bone-marrow-derived DCs; TLR2−/− and MyD88−/− BM-DCs, n=3) | inflammatory cytokine secretion (TNFα, IL-6) by BM-DCs (bone-marrow-derived DCs; wild-type and TLR6−/− BM-DCs, 5 μg/ml overnight, active or inactive) | OX40L up-regulation on BM-DCs (bone-marrow-derived DCs; wild-type and TLR6−/− BM-DCs, 2 days) |
| --- | --- | --- | --- | --- | --- | --- | --- |
| zymosan [reference compound] | induce p50 translocation in the nucleus after 30 min | induce OX40L on DCs | activate NF-κB in a TLR2-dependent manner |  |  |  |  |
| murine MMP-2: murine MMP-2 protein, active or inactive |  |  |  | activates bone-marrow-derived DCs in a TLR2- and MyD88-dependent manner | not activated | secreted inflammatory cytokines | up-regulated OX40L |
| B1 |  |  | did not trigger TLR-2 activation; also recorded: do not trigger TLR2 |  |  |  |  |
